Measured values reported in ChEMBL document CHEMBL1201861, “Genomics of Drug Sensitity in Cancer screening data, Wellcome Trust Sanger Institute”.

Assays:
C-4-II = assay: SANGER: Inhibition of human C-4-II cell growth in a cell viability assay.; assay type: functional, cell-based; conditions: Homo sapiens, C-4-II
RT-4 = assay: SANGER: Inhibition of human RT4 cell growth in a cell viability assay.; assay type: functional, cell-based; conditions: Homo sapiens, RT-4
HCC1143 = assay: cells; assay type: functional, cell-based, Homo sapiens; conditions: Homo sapiens, HCC1143;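 note: growth inhibition of human HCC1143 cells, read out with a cell viability assay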
Description: SANGER: Inhibition of human HCC1143 cell growth in a cell viability assay.

DMS-53 = assay: cells; assay type: functional, cell-based, Homo sapiens; conditions: Homo sapiens, DMS-53;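 note: cell viability assay measuring growth inhibition of human DMS-53 cells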
Description: SANGER: Inhibition of human DMS-53 cell growth in a cell viability assay.

SNU-475 = assay: cells; assay type: functional, cell-based, Homo sapiens; conditions: Homo sapiens, SNU-475
Description: SANGER: Inhibition of human SNU-475 cell growth in a cell viability assay.

COLO 205 = assay: cells; assay type: functional, cell-based, Homo sapiens; conditions: Homo sapiens, COLO 205
Description: SANGER: Inhibition of human COLO-205 cell growth in a cell viability assay.

Caov-4 = assay: cells; assay type: functional, cell-based; conditions: Homo sapiens
Description: SANGER: Inhibition of human Caov-4 cell growth in a cell viability assay.

ECC12 = assay: cells; assay type: functional, cell-based; conditions: Homo sapiens
Description: SANGER: Inhibition of human ECC12 cell growth in a cell viability assay.

MDA-MB-468 = assay: cells; assay type: functional, cell-based, Homo sapiens; conditions: Homo sapiens, MDA-MB-468
Description: SANGER: Inhibition of human MDA-MB-468 cell growth in a cell viability assay.

EW-7 = assay: SANGER: Inhibition of human EW-7 cell growth in a cell viability assay.; assay type: functional, cell-based; conditions: Homo sapiens, EW-7
Caov-3 cell line = assay: cells; assay type: functional, cell-based, Homo sapiens; conditions: Homo sapiens, Caov-3;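 note: cell growth inhibition read out by a viability assay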
Description: SANGER: Inhibition of human Caov-3 cell growth in a cell viability assay.

MFE-296 = assay: SANGER: Inhibition of human MFE-296 cell growth in a cell viability assay.; assay type: functional, cell-based; conditions: Homo sapiens, MFE-296
NCI-H838 = assay: cells; assay type: functional, cell-based, Homo sapiens; conditions: Homo sapiens, NCI-H838;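 note: growth inhibition of human NCI-H838 cells, read out by a cell viability assay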
Description: SANGER: Inhibition of human NCI-H838 cell growth in a cell viability assay.

MES-SA = assay: cells; assay type: functional, cell-based, Homo sapiens; conditions: Homo sapiens, MES-SA;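 note: growth inhibition of human MES-SA cells, read out with a cell viability assay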
Description: SANGER: Inhibition of human MES-SA cell growth in a cell viability assay.

TT = assay: cells; assay type: functional, cell-based, Homo sapiens; conditions: Homo sapiens, TT
Description: SANGER: Inhibition of human TT cell growth in a cell viability assay.

SK-CO-1 = assay: cells; assay type: functional, cell-based, Homo sapiens; conditions: Homo sapiens, SK-CO-1;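 note: growth inhibition of SK-CO-1 cells, determined by a viability readout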
Description: SANGER: Inhibition of human SK-CO-1 cell growth in a cell viability assay.

SW900 = assay: cells; assay type: functional, cell-based, Homo sapiens; conditions: Homo sapiens, SW900;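 note: IC50 is the concentration that inhibits SW900 cell growth, measured by a cell viability assay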
Description: SANGER: Inhibition of human SW900 cell growth in a cell viability assay.

SK-MEL-5 = assay: SANGER: Inhibition of human SK-MEL-5 cell growth in a cell viability assay.; assay type: functional, cell-based
SK-MG-1 = assay: SANGER: Inhibition of human SK-MG-1 cell growth in a cell viability assay.; assay type: functional, cell-based
NCI-H128 = assay: SANGER: Inhibition of human NCI-H128 cell growth in a cell viability assay.; assay type: functional, cell-based
NCI-H378 = assay: SANGER: Inhibition of human NCI-H378 cell growth in a cell viability assay.; assay type: functional, cell-based
TC-YIK = assay: SANGER: Inhibition of human TC-YIK cell growth in a cell viability assay.; assay type: functional, cell-based
SKM-1 = assay: SANGER: Inhibition of human SKM-1 cell growth in a cell viability assay.; assay type: functional, cell-based
CHP-134 = assay: SANGER: Inhibition of human CHP-134 cell growth in a cell viability assay.; assay type: functional, cell-based
BALL-1 = assay: cells; assay type: functional, cell-based, Homo sapiens; conditions: Homo sapiens, BALL-1;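 note: growth inhibition of BALL-1 cells, read out with a cell viability assay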
Description: SANGER: Inhibition of human BALL-1 cell growth in a cell viability assay.

ECC10 = assay: cells; assay type: functional, cell-based, Homo sapiens; conditions: Homo sapiens, ECC10;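 note: growth inhibition of ECC10 cells, read out by a cell viability assay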
Description: SANGER: Inhibition of human ECC10 cell growth in a cell viability assay.

NBsusSR = assay: cells; assay type: functional, cell-based, Homo sapiens; conditions: Homo sapiens, NBsusSR;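 note: growth inhibition of the human cell line, read out with a cell viability assay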
Description: SANGER: Inhibition of human NBsusSR cell growth in a cell viability assay.

Structure (SMILES)	IC50 (RT-4)	IC50 (DMS-53)	IC50 (ECC12)	IC50 (EW-7)	IC50 (MES-SA)	IC50 (SW900)	IC50 (CHP-134)	IC50 (BALL-1)	IC50 (ECC10)	IC50 (NBsusSR)	other results
N#Cc1c(O)c2c(-c3ccc(-c4ccccc4O)cc3)csc2[nH]c1=O	> 1.02 µM	> 1020 nM	> 1.02 µM	> 1020 nM	> 1020 nM	–	–	–	–	–	IC50 (C-4-II): > 1020 nM; IC50 (HCC1143): > 1020 nM; IC50 (SNU-475): > 1020 nM; IC50 (COLO 205): > 1020 nM; IC50 (Caov-4): > 1020 nM; IC50 (MDA-MB-468): > 1020 nM; IC50 (Caov-3 cell line): > 1020 nM; IC50 (MFE-296): > 1020 nM; IC50 (NCI-H838): > 1020 nM; IC50 (TT): > 1020 nM; IC50 (SK-CO-1): > 1020 nM
CC(C)c1ccccc1Cc1cc(C(=O)Nc2ccc(S(=O)(=O)c3ccccc3C(C)(C)C)cc2)c(O)c(O)c1O	10.6 µM	1320 nM	–	167 nM	1110 nM	2770 nM	–	–	–	–	IC50 (SK-MEL-5): 69.2 nM; IC50 (SK-MG-1): 2580 nM
COc1cc2ncn(-c3cc(OCc4ccccc4S(C)(=O)=O)c(C#N)s3)c2cc1OC [GSK-319347A]	–	–	> 5 µM	–	–	–	–	–	–	–	IC50 (NCI-H128): > 5 µM; IC50 (NCI-H378): > 5 µM; IC50 (TC-YIK): > 5 µM; IC50 (SKM-1): > 5 µM
CCN(CC)CCCCNc1ncc2cc(-c3cc(OC)cc(OC)c3)c(NC(=O)NC(C)(C)C)nc2n1 [PD-173074]	–	–	–	–	–	> 2000 nM	> 2 µM	> 2 µM	339 nM	> 2000 nM	–
CC(C)CCN1c2nc(Nc3cc(F)c(O)c(F)c3)ncc2N(C)C(=O)C1C (stereo not drawn)	–	–	–	–	–	> 5000 nM	3.49 µM	> 5 µM	701 nM	1830 nM	–
